Results as given in ChEMBL document CHEMBL1201862, “PubChem BioAssay data set” (2004).
Where a name gives a salt, the structure may show the parent alone.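 How tested: cells in 96-well plates exposed to compound for 48 hours at five concentrations. Abbreviation: GI50, concentration required for 50% inhibition of growth.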 The source made the active and inactive calls. No stated cut-off is given here; in the data, active = GI50 up to about 1.1 µM and inactive = higher.

Tests used:
Experiment in all cases: growth of human tumour cells (NCI), 48 h
MCF7 = test system: MCF7
BT-549 = test system: BT-549
SN12C = test system: SN12C
SK-OV-3 = test system: SK-OV-3
SF-268 = test system: SF-268
NCI-H460 = test system: NCI-H460
SW-620 = test system: SW-620
U-251 = test system: U-251
Hs-578T = test system: Hs-578T
SNB-19 = test system: SNB-19
IGROV-1 = test system: IGROV-1
PC-3 = test system: PC-3
HCT-116 = test system: HCT-116
T47D = test system: T47D
A498 = test system: A498
SR = test system: SR
UO-31 = test system: UO-31
SNB-75 = test system: SNB-75
MDA-MB-435 = test system: MDA-MB-435
M14 = test system: M14

SMILES	GI50 (MCF7)	GI50 (BT-549)	GI50 (SN12C)	GI50 (SK-OV-3)	GI50 (SF-268)	GI50 (NCI-H460)	GI50 (SW-620)	GI50 (U-251)	GI50 (Hs-578T)	GI50 (SNB-19)	GI50 (IGROV-1)	GI50 (PC-3)	GI50 (HCT-116)	GI50 (T47D)	GI50 (A498)	GI50 (SR)	GI50 (UO-31)	GI50 (SNB-75)	GI50 (MDA-MB-435)	GI50 (M14)
CCn1c2ccccc2c2ccc(C3C4C(=O)N(c5cccc6ccccc56)C(=O)C4ON3C(C(N)=O)c3ccccc3)cc21 (stereo not given)	8.38 µM (inactive)	14.9 µM (inactive)	16.7 µM (inactive)	> 25 µM (inactive)	> 25 µM (inactive)	12.9 µM (inactive)	12.8 µM (inactive)	10.8 µM (inactive)	> 25 µM (inactive)	> 25 µM (inactive)	13.4 µM (inactive)	14.2 µM (inactive)	13 µM (inactive)	17.9 µM (inactive)	2.63 µM (inactive)	9.12 µM (inactive)	> 25 µM (inactive)	> 25 µM (inactive)	10.2 µM (inactive)	19.1 µM (inactive)
O=C1CSC(c2cccs2)N1c1nc2cc3sc(N4C(=O)CSC4c4cccs4)nc3cc2s1 (stereo not given)	15.9 µM (inactive)	> 50 µM (inactive)	26.4 µM (inactive)	> 50 µM (inactive)	> 50 µM (inactive)	3.04 µM (inactive)	16.2 µM (inactive)	40.9 µM (inactive)	> 50 µM (inactive)	> 50 µM (inactive)	32.3 µM (inactive)	47.9 µM (inactive)	38.4 µM (inactive)	> 50 µM (inactive)	> 50 µM (inactive)	5.45 µM (inactive)	30.9 µM (inactive)	> 50 µM (inactive)	> 50 µM (inactive)	> 50 µM (inactive)
O=C(Nc1cccc(-c2cn3ccccc3n2)c1)c1ccncc1	31.6 µM (inactive)	21.7 µM (inactive)	32.7 µM (inactive)	70.8 µM (inactive)	41.4 µM (inactive)	16.1 µM (inactive)	64.9 µM (inactive)	48.2 µM (inactive)	38.1 µM (inactive)	99.3 µM (inactive)	40.9 µM (inactive)	35.9 µM (inactive)	33.1 µM (inactive)	19.2 µM (inactive)	76 µM (inactive)	24 µM (inactive)	43.1 µM (inactive)	46.1 µM (inactive)	31.9 µM (inactive)	33.7 µM (inactive)
O=c1nc(N2CCNCC2)oc2cc(Cl)oc(=O)c12	3.98 µM (inactive)	0.716 µM (active)	6.11 µM (inactive)	12.3 µM (inactive)	3.89 µM (inactive)	6.98 µM (inactive)	2.26 µM (inactive)	3.91 µM (inactive)	1.94 µM (inactive)	15.4 µM (inactive)	2.7 µM (inactive)	6.49 µM (inactive)	2.43 µM (inactive)	2.79 µM (inactive)	20.8 µM (inactive)	1.65 µM (inactive)	7.67 µM (inactive)	3.7 µM (inactive)	4.44 µM (inactive)	2.45 µM (inactive)
C=C[C@@]1(C)CC(=O)[C@]2(O)[C@@]3(C)[C@@H](O)CCC(C)(C)[C@@H]3[C@H](O)[C@@H](OC(C)=O)[C@@]2(C)O1	22.1 µM (inactive)	> 100 µM (inactive)	57.7 µM (inactive)	95.1 µM (inactive)	> 100 µM (inactive)	> 100 µM (inactive)	> 100 µM (inactive)	> 100 µM (inactive)	70.1 µM (inactive)	> 100 µM (inactive)	> 100 µM (inactive)	> 100 µM (inactive)	> 100 µM (inactive)	54.5 µM (inactive)	> 100 µM (inactive)	> 100 µM (inactive)	60.4 µM (inactive)	> 100 µM (inactive)	> 100 µM (inactive)	> 100 µM (inactive)
NCCSSCCN [CYSTAMINE HYDROCHLORIDE]	> 100 µM (inactive)	> 100 µM (inactive)	> 100 µM (inactive)	> 100 µM (inactive)	> 100 µM (inactive)	> 100 µM (inactive)	> 100 µM (inactive)	> 100 µM (inactive)	> 100 µM (inactive)	> 100 µM (inactive)	> 100 µM (inactive)	> 100 µM (inactive)	> 100 µM (inactive)	> 100 µM (inactive)	> 100 µM (inactive)	> 100 µM (inactive)	> 100 µM (inactive)	> 100 µM (inactive)	> 100 µM (inactive)	> 100 µM (inactive)
COc1ccc2c3c([nH]c2c1)[C@H](C=C(C)C)N1C(=O)[C@@H]2CCCN2C(=O)[C@@H]1C3 [FUMITREMORGIN]	> 100 µM (inactive)	> 100 µM (inactive)	> 100 µM (inactive)	29.6 µM (inactive)	44 µM (inactive)	> 100 µM (inactive)	> 100 µM (inactive)	73.1 µM (inactive)	50.9 µM (inactive)	> 100 µM (inactive)	> 100 µM (inactive)	> 100 µM (inactive)	> 100 µM (inactive)	> 100 µM (inactive)	> 100 µM (inactive)	> 100 µM (inactive)	> 100 µM (inactive)	21.7 µM (inactive)	> 100 µM (inactive)	> 100 µM (inactive)
